Measurements taken from EP0429333B1, “Process for producing oxazopyrroloquinolines, novel oxazopyrroloquinolines, and use of oxazopyrroloquinolines” (priority 1989, dated 1991).

Experiments:
male SPF-ICR mice = assay: in vivo; conditions: mouse, in vivo
Description: (1) Acute toxicity test: • (i) To male SPF-ICR mice of 5 weeks old (supplied by Charles River Co.) were intraperitoneally administered PQQ·2Na and OPQs in the dosages of 20, 40, 80, 160 and 200 mg/kg body weight of mouse, respectively and they were bred at 25°C for 14 days. OPQ, 1-methylpropyl OPQ, 2-methylthioethyl OPQ, and benzyl OPQ were used as the OPQs. One group consisted of 8 mice. […] One group consisted of 8 mice. […] They were bred at 25°C for 14 days. One group consisted of eight mice. […] (2) Toxicity to kidney (i) Toxicity to kidney determined by urine examination: In the same manner as in the acute toxicity test, PQQ·2Na and OPQs were respectively intraperitoneally administered to mice and these mice were bred. Urine was collected every day and concentration of glucose in urine was obtained using Uristex II (manufactured by Miles·Sankyo Co.). […]

kidney = assay: Toxicity to kidney determined by blood examination; format: in vivo, mice; conditions: serum; for Creatinine: Table 2, no administration 0.8; for Urea nitrogen: Table 2, no administration 24; for Glucose: Table 2, no administration 78
Description: After one day from administration, the mice were fasted (only water was given) and after lapse of 18 hours, blood was collected and serum was obtained therefrom. Glucose, urea nitrogen and creatinine in the serum were examined using FUJI Dry Chemslide (manufactured by Fuji Photo Film Co., Ltd.). […]
Thereafter, the mice were fasted (with giving only water) and after lapse of 18 hours, blood was collected and serum was obtained therefrom. Contents of glucose, urea nitrogen and creatinine in serum were obtained using FUJI Dry Chemslide. The results were shown by average value for eight mice.

[1] = target: aldose reductase of kidney (Canis lupus familiaris, UniProt A0A8I3P2L6); assay: Inhibitory effect on aldose reductase of kidney; format: biochemical, dog; conditions: read-out: Degree of inhibition for aldose reductase (%); for inhibition at 1 µM: concentration 1x10^-6 M; for inhibition at 2 µM: concentration 2x10^-6 M; for inhibition at 5 µM: concentration 5x10^-6 M; for inhibition at 0.5 µM: concentration 5x10^-7 M
Description: Medulla of kidney of dog was homogenized with 10mM phosphoric acid buffer (pH 7.0) containing 2mM dithiothreitol in an amount of four times the volume of kidney medulla and subjected to centrifugation. The supernatant liquid was purified by affinity chromatography, gel filtration and chromatofocusing to obtain electrophoretically homogeneous aldose reductase. 0.05 ml of 3mM NADPH, 0.1 ml of DL-glyceraldehyde and 0.04 ml of distilled water were added to 0.8 ml of 0.1M phosphoric acid buffer (pH 6.2) and left to stand at 25°C for 3 minutes. Then, 0.01 ml of the aldose reductase solution was added thereto to start reaction and decreasing of absorbance of 340 nm was measured at 25°C with time. Amount of enzyme which consumes 1 µmole of NADPH for 1 minute was taken as 1 unit.

[2] = Solubility of the isolated compound, described in words; format: physicochemical; conditions: for solubility in water / solubility under neutral and alkaline conditions: water
[3] = system: carbon tetrachloride (CCl4)-induced liver diseases; assay: Pharmacological activity on carbon tetrachloride-induced liver diseases; format: in vivo, SD rats; conditions: 5mg/kg rat twice, CCl4 1 ml/kg rat; for Total bilirubin: Table 27: CCl4 only 1.2, no administration 0.5; for GPT: Table 27: CCl4 only 818, no administration 16; for GOT: Table 27: CCl4 only 3308, no administration 144
[4] = target: T1, aldose reductase of rabbit lens (Oryctolagus cuniculus, UniProt P15122); assay: Inhibitory effect on aldose reductase of lens; format: biochemical; conditions: read-out: Degree of inhibition for aldose reductase (%)
T1 construct: to obtain electrophoretically homogeneous aldose reductase; from tissue; host or cells: rabbit lens
Description: 0.05 ml of 3mM NADPH, 0.1 ml of DL-glyceraldehyde and 0.04 ml of distilled water were added to 0.8 ml of 0.1M phosphoric acid buffer (pH 6.2) and left to stand at 25°C for 3 minutes. Then, 0.01 ml of the aldose reductase solution was added thereto to start reaction and decreasing of absorbance of 340 nm was measured at 25°C with time. Amount of enzyme which consumes 1 µmole of NADPH for 1 minute was taken as 1 unit.
Enzyme activity was measured under the same conditions as in the above measurement of aldose reductase activity except that 0.04 ml of aqueous solution of inhibitory substance in various concentrations was added in place of 0.04 ml of distilled water and degree of inhibition was calculated from comparison of the enzyme activity with the enzyme activity obtained in the absence of inhibitor. (1) OPQ, (2) methyl OPQ, (3) 1-methylpropyl OPQ, (4) 2-methylpropyl OPQ, (5) 2-carbamoylethyl OPQ, (6) hydroxymethyl OPQ, (7) 2-methylthioethyl OPQ, (8) 2-carboxyethyl OPQ, (9) 4-hydroxybenzyl OPQ, (10) 1-methylethyl OPQ, and (11) benzyl OPQ were used as inhibition substances and (12) PQQ was used as control.
Lens of rabbit was homogenized with 10mM phosphoric acid buffer (pH 7.0) containing 2mM dithiothreitol in an amount of two times the volume of the lens and subjected to centrifugation. The supernatant liquid was purified by affinity chromatography, gel filtration and chromatofocusing to obtain electrophoretically homogeneous aldose reductase. Using (1) OPQ, (2) 1-methylpropyl OPQ, (3) 2-methylpropyl OPQ, (4) hydroxymethyl OPQ, and (5) 1-methylethyl OPQ as inhibition substances, degree of inhibition of these substances for aldose reductase of rabbit lens was examined in the same manner in Example 32.

peritoneal macrophage = assay: Test on macrophage-chemotaxis after intraperitoneal administration; format: in vivo, C3H/He mice; conditions: for (2) Chemotaxis factor was present: 50 % zymosan treated serum, no administration 40; for (2) - (1) Chemotaxied macrophage: no administration 29; for Relative activity of group (%): no administration = 100; for (1) Chemotaxis factor was not present: total number of chemotaxied macrophages at 3 points, no administration 11
Description: Thirtytwo C3H/He mice (male, 7 weeks old, average body weight 20 g, supplied by Japan Charles River Co.) were divided into 4 groups (A - D) of 8 mice each.
A solution of OPQ in physiological saline of pH 7.0 was intraperitoneally administered to each mouse 7 times, namely, on the 1st day, 2nd day, 3rd day, 4th day, 5th day, 6th day and 7th day. Dosage for one administration per one mouse was as follows: That is, 0.2 ml of the solution containing 0.2 mg/ml of OPQ for group B, 0.2 ml of the solution containing 0.5 mg/ml of OPQ for group C, 0.2 ml of the solution containing 1.0 mg/ml of OPQ for group D and 0.2 ml of physiological saline for group A.
On the 8th day from starting of the experiment, the mice were anesthetized with ether and blood was drawn from carotid artery and 5 ml of cold Hanks solution was intraperitoneally injected and exudate cells for the abdominal cavity were collected. Exudate cells for the abdominal cavity of respective groups were gathered, washed three times with cold Hanks solution and suspended in RPMI medium at 5 x 10^5 cells/ml and macrophage-chemotaxis was measured. 50 % zymosan treated serum was used as chemotaxis factor and examination was conducted at three points for each sample. Number of chemotaxied macrophage was measured on microscope and 13 visual fields was examined for one point and the results are shown in Table 2. The value in the table is a total number of chemotaxied macrophages at 3 points for each sample. Preparation of Hanks solution and RPMI medium will be explained below.
Test on macrophage-chemotaxis was conducted in the same manner as in Example 36 except that hydroxymethyl OPQ was intraperitoneally administered to each mouce 3 times of the 1st day, the 2nd day and the 3rd day in the following dosage for one administration per one mouse: 0.2 ml of hydroxymethyl OPQ solution containing 0.5 mg/ml of hydroxymethyl OPQ for group B, 0.2 ml of the solution containing 1.0 mg/ml of hydroxymethyl OPQ for group C, and 0.2 ml of the solution containing 1.5 mg/ml of hydroxymethyl OPQ for group D and exudate cells for the abdominal cavity were collected on the 4th day from starting of experiment.
In Examples 36 - 40, macrophage activity was examined according to chemotaxis of peritoneal macrophage (literature 1) and activity of T cell and that of B cell were examined according to blast transformation reaction using concanavalin A and lipopolysaccharide, (LPS) as mitogen (literature 2). Literature 1: "Function of Macrophage and Method of Measurement of Function", pages 61-65 1985), edited by Educational Committee of Japan Bacteriological Society and published from Saikon Shuppan Co.) Literature 2: "New Method of Searching of Function of Lymphocytes", pages 350-355 (1987) edited by Junichi Yada and Michio Fujiwara and published from Chugai Igaku Co.

[5] = 40 mg/kg mouse intraperitoneally
[6] = 80 mg/kg mouse intraperitoneally
[7] = 160 mg/kg mouse intraperitoneally
[8] = 200 mg/kg mouse intraperitoneally
[9] = 5 mg/kg mouse x 3 days intraperitoneally
[10] = 10 mg/kg mouse x 3 days intraperitoneally
[11] = 15 mg/kg mouse x 3 days intraperitoneally

Row | SMILES | death of mice (male SPF-ICR mice) | Creatinine (kidney; [5]) [mg/dL] | Urea nitrogen (kidney; [5]) [mg/dL] | Glucose (kidney; [5]) [mg/dL] | Creatinine (kidney; [6]) [mg/dL] | Urea nitrogen (kidney; [6]) [mg/dL] | Glucose (kidney; [6]) [mg/dL] | Creatinine (kidney; [7]) [mg/dL] | Urea nitrogen (kidney; [7]) [mg/dL] | Glucose (kidney; [7]) [mg/dL] | Creatinine (kidney; [8]) [mg/dL] | Urea nitrogen (kidney; [8]) [mg/dL] | Glucose (kidney; [8]) [mg/dL] | inhibition at 1 µM [1] [%] | inhibition at 2 µM [1] [%] | inhibition at 5 µM [1] [%] | solubility in acetone and diethyl ether [2] | solubility in lower alcohols [2] | solubility in water [2] | solubility under neutral and alkaline conditions [2] | other results
1 | CSCCc1nc2c3nc(C(=O)O)cc(C(=O)O)c3c3[nH]c(C(=O)O)cc3c2o1 [2-Methylthioethyl OPQ, 5-(2-Methylthioethyl)-2,8,10-tricarboxy-1H-oxazo-[5,4-h]-pyrrolo[2,3-f]quinoline] | no mice died | 0.8 | 26 | 96 | 0.7 | 26 | 88 | 0.6 | 26 | 97 | 0.7 | 26 | 72 | 42 | 54.9 | 81.8 | did not dissolve | dissolved | easily soluble | especially soluble | inhibition at 10 µM ([1]; concentration 1x10^-5 M): 83%; inhibition at 0.5 µM [1]: 24.3%; Total bilirubin [3]: 0.7 mg/dL; GPT [3]: 157 U/l; GOT [3]: 693 U/l
2 | O=C(O)c1cc(C(=O)O)c2c(n1)c1nc(Cc3ccccc3)oc1c1cc(C(=O)O)[nH]c12 [Benzyl OPQ, 5-Benzyl-2,8,10-tricarboxy-1H-oxazo[5,4-h]-pyrrolo-[2,3-f]-quinoline] | no mice died | 0.7 | 23 | 90 | 0.7 | 23 | 87 | 0.7 | 26 | 87 | 0.7 | 25 | 84 | 35.7 | 46.4 | 63.3 | did not dissolve | dissolved | easily soluble | especially soluble | Total bilirubin [3]: 0.7 mg/dL; GPT [3]: 233 U/l; GOT [3]: 993 U/l
3 | O=C(O)c1cc(C(=O)O)c2c(n1)c1nc(CO)oc1c1cc(C(=O)O)[nH]c12 [Hydroxymethyl OPQ, 5-Hydroxymethyl-2,8,10-tricarboxy-1H-oxazo[5,4-h]-pyrrolo[2,3-f]-quinoline] | – | – | – | – | – | – | – | – | – | – | – | – | – | 57.9 | 68.2 | – | did not dissolve | dissolved | easily soluble | very easily soluble | inhibition at 0.2 µM ([1]; concentration 2x10^-7 M): 26.7%; inhibition at 0.5 µM [1]: 41.1%; inhibition at 1 µM ([4]; concentration 1x10^-6 M): 50.1%; inhibition at 2 µM ([4]; concentration 2x10^-6 M): 60.4%; inhibition at 0.5 µM ([4]; concentration 5x10^-7 M): 31.9%; (2) Chemotaxis factor was present (peritoneal macrophage; [9]): 61; (2) - (1) Chemotaxied macrophage (peritoneal macrophage; [9]): 44; Relative activity of group (%) (peritoneal macrophage; [9]): 152%; (1) Chemotaxis factor was not present (peritoneal macrophage; [9]): 17; (2) Chemotaxis factor was present (peritoneal macrophage; [10]): 66; (2) - (1) Chemotaxied macrophage (peritoneal macrophage; [10]): 56; Relative activity of group (%) (peritoneal macrophage; [10]): 193%; (1) Chemotaxis factor was not present (peritoneal macrophage; [10]): 10; (2) Chemotaxis factor was present (peritoneal macrophage; [11]): 48; (2) - (1) Chemotaxied macrophage (peritoneal macrophage; [11]): 39; Relative activity of group (%) (peritoneal macrophage; [11]): 134%; (1) Chemotaxis factor was not present (peritoneal macrophage; [11]): 9
